Structures can show the parent of a compound that is named as a salt.
Legend:
[1] = test system: normoglycemic rats; assay: Oral glucose tolerance test in normoglycemic rats (Examples 36, 37); format: in vivo, Male Wistar rats; conditions: 10 mg/kg orally, single dose per day
Method: Male Wistar rats (200-300 g) were utilized provided by Mato Grosso do Sul's Federal University's Biotherium. Until the experiments were carried out, the animals have had free access to feed and water. The room temperature was kept at 22±2° C. with controlled humidity (60-80%) and the light/dark cycle was of 12 hours.
The glucose tolerance test was evaluated as described by Al-Awaki et al (6).
Rats were randomly divided into […] groups of four animals that were control group that received only a solution of saline, compound 23b group (10 mg/kg), compound 21a group (10 mg/kg) and metformin 300 mg/kg group. Respective treatments were made orally and daily for five days.
(§1) On day 1, 3, and 5, different groups of rats were fasted overnight (at least 12 h) prior to the test, but with given water ad libitum. The oral glucose tolerance test was carried out by administering of a glucose solution (2 g/kg body weight) according to Al-Awadi et al (6). Glycemia was determined in blood samples collected from the tail vein at −30 minutes (just before the administration of the oral extract) time 0 (prior to the glucose overload) and at 60 minutes after the glucose overload. Serum glucose concentrations were measured by the glucose oxidase method (7) using commercial kit (Accuchek-performa (Roche)) according to the manufacture's instructions.
Male Wistar rats (200-300 g) were utilized provided by Mato Grosso do Sul's Federal University's Biotherium. Until the experiments were carried out, the animals have had free access to feed and water. The room temperature was kept at 22±2° C. with controlled humidity (60-80%) and the light/dark cycle was of 12 hours. All procedures were submitted to the Animal Experimentation Ethics Committee.
The compounds 21b, 23a and 23d were diluted firstly in 20 μl of ethanol and after in 980 μl de saline. Compounds 21e, 23e and 26b were dissolved in sterile saline and were administered by oral gavage to rats based in the weight, for example 200 g received 200 μL.
54 rats were randomly divided into […] groups of five-eight animals that were control group (n=8) that received only a solution of vehicle, compound 21b group (n=5) (10 mg/kg), compound 21e group (n=5) (10 mg/kg), compound 23e group (n=5) (10 mg/kg), compound 23a group (n=5) (10 mg/kg), compound 23d group (n=5) (10 mg/kg), compound 26b group (n=5) (10 mg/kg) and metformin (n=6) 300 mg/kg group. Respective treatments were made orally and daily for five days.
as §1, with “manufactures's” for “manufacture's”

[2] = test system: Drosophila melanogaster (Oregon-R strain); assay: Toxicology study: larva-to-adult viability and development time; conditions: 350 μg/ml; positive control (toxic)
Description: The purpose of this study was to test and compare the potential toxic effects of compounds 5a, 6a and 7a on the larva-to-adult viability and development time in a Drosophila melanogaster (Oregon-R) flies. These studies have a relevant predictive role with the aim to anticipate possible adverse toxicological effects that may happen during preclinical studies with animal, preferably mammals. In addition, the data provided are highly quantitative.
Drosophila melanogaster (Oregon-R) flies were obtained by the University of the Balearic Islands (Spain). […] The larvae were seeded on standard food supplemented with the appropriate dose of compounds tested. Each compound was tested at 1, 10, 100, 1000 and 2000 μg/ml dissolved in standard food.
Fly adults were transferred from the serial transfer system to bottles with fresh food for 24 h. Adults 5 days old were placed on egg collecting devices (layers) containing a mixture of agar, water, acetic acid, and ethyl alcohol, with a drop of active yeast on it. Every 2 h., the layer glasses were changed, in this way, the eggs of a glass have similar age, with a maximum difference of 2 h. among them. The glasses of the layers were kept at 25° C. for at least 22 h. in Petri dishes until larvae hatched. Fifty larvae were picked with a lancet under a stereoscopic microscope and were seeded into 10×2 cm vials with 5 ml food. Vials were supplemented with 4a, 5a and 7a at 1, 10 and 100 μg/ml. As positive control we used cupric acetate (toxic) at 350 μg/ml.
The number of adult flies which emerged from each vial was counted daily until the exhaustion of the culture. The parameters studied were the larvae-to-adult viability (V) and development time.
Viability is expressed as V=NA/NL, where NL is the input number of larvae ([…] in our case) and NA the output number of adults emerging from these NL larvae. Development time was measured in days by the formula DT=ΣNidi/ΣNi where Ni is the number of flies emerging on the day di after the larvae were placed in the medium.
The data are expressed as the mean±SEM values from 3 independent experiments involving triplicate vials at the number of flies indicated.

[3] = fifth day, in relation to control group

Structure (SMILES): COc1ccc(-c2nc(C(=O)NCCCCN)cc3c2[nH]c2ccccc23)cc1.Cl [Compound 23e, N-(4-aminobutyl)-1-(4-methoxyphenyl)-9H-pyrido[3,4-b]indole-3-carboxamide hydrochloride]
- glucose levels in oral glucose tolerance test [1, 3]: reduced the glucose levels
- glucose levels in oral glucose tolerance test ([1]; first day): significant reduction in glucose levels
- glucose levels in oral glucose tolerance test ([1]; third day): significant reduction in glucose levels

Structure (SMILES): CC(=O)[O-].CC(=O)[O-].[Cu+2] [Cupric acetate, cupric acetate, reference compound]
- Larva-to-adult viability (% emerged adult flies) [2]: 0%

Structure (SMILES): COc1ccc(-c2nc(C(=O)N3CCOCC3)cc3c2[nH]c2ccccc23)cc1.Cl [Compound 23a, [1-(4-methoxyphenyl)-9H-pyrido[3,4-b]indol-3-yl]-4-morpholinyl-Methanone Hydrochloride]
- glucose levels in oral glucose tolerance test ([1]; first day): significant reduction in glucose levels

Structure (SMILES): COc1ccc(-c2nc(C(=O)NCCO)cc3c2[nH]c2ccccc23)cc1.Cl [Compound 23d, N-(2-hydroxyethyl)-1-(4-methoxyphenyl)-9H-pyrido[3,4-b]indole-3-carboxamide hydrochloride]
- glucose levels in oral glucose tolerance test [1, 3]: reduced the glucose levels

Structure (SMILES): Cl.NCCNC(=O)c1cc2c([nH]c3ccccc32)c(-c2ccc(Cl)cc2)n1 [Compound 21b, N-(2-aminoethyl)-1-(4-chlorophenyl)-9H-pyrido[3,4-b]indole-3-carboxamide]
- glucose levels in oral glucose tolerance test [1, 3]: reduced the glucose levels

Structure (SMILES): COc1ccc(-c2nc(C(=O)NCCN(C)C)cc3c2[nH]c2ccccc23)cc1 [Compound 23b, N-(2-dimethylaminoethyl)-1-(4-methoxyphenyl)-9H-pyrido[3,4-b]indole-3-carboxamide hydrochloride]
- glucose levels in oral glucose tolerance test [1, 3]: reduced the glucose levels
- glucose levels in oral glucose tolerance test ([1]; third day): significant reduction in glucose levels

Source: patent US9440966B2, “Compounds for treatment of metabolic syndrome” (SJT MOLECULAR RESEARCH, S.L., priority 2011, dated 2016)
